Data: PubChem BioAssay AID2060891 (Molecular Pharmacology Branch, DTP, NCI, 2025)
pIC50: −log10 of the molar value.

Tested on: K98450-129-R-PDC complex spheroid growth, percent test/control
Test: Anticancer human tumor K98450-129-R-PDC patient-derived colon adenocarcinoma cell line growth inhibition [RAS]
Settings: for pIC50: curve of first compound; for viability, T/C: stronger effect = lower value
Outline: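 Multi-cell-type spheroids: tumor cells plus HUVEC endothelial cells and mesenchymal stem cells. RAS-pathway inhibitors were combined with targeted agents, each dosed in half-log steps down from clinical Cmax, or from 10 microM when Cmax was unknown.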
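Note: spheroids exposed to agents for seven days before the viability readout.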
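Throughout, for viability, T/C: luminescence used as a proxy for viable cell amount.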

C=CC(=O)Nc1cc(Nc2nccc(-c3cn(C)c4ccccc34)n2)c(OC)cc1N(C)CCN(C)C + C#Cc1c(F)ccc2cc(O)cc(-c3ncc4c(N5CC6CCC(C5)N6)nc(OCC56CCCN5CC(F)C6)nc4c3F)c12
pIC50 (second compound 0.0316 µM): 6.21
pIC50 (second compound 0.1 µM): 6.20
pIC50 (second compound 0.316 µM): 6.23
pIC50 (second compound 1 µM): 6.33
pIC50 (second compound 3.16 µM): 6.48
pIC50 (second compound 10 µM): 6.71
viability, T/C (second compound 0.0316 µM, first compound 0.00316 µM): 107%
viability, T/C (second compound 0.0316 µM, first compound 0.01 µM): 112%
viability, T/C (second compound 0.0316 µM, first compound 0.0316 µM): 106%
viability, T/C (second compound 0.0316 µM, first compound 0.1 µM): 100%
viability, T/C (second compound 0.0316 µM, first compound 0.316 µM): 69.4%
viability, T/C (second compound 0.0316 µM, first compound 1 µM): 36.4%
viability, T/C (second compound 0.1 µM, first compound 0.00316 µM): 107%
viability, T/C (second compound 0.1 µM, first compound 0.01 µM): 100%
viability, T/C (second compound 0.1 µM, first compound 0.0316 µM): 103%
viability, T/C (second compound 0.1 µM, first compound 0.1 µM): 101%
viability, T/C (second compound 0.1 µM, first compound 0.316 µM): 79.6%
viability, T/C (second compound 0.1 µM, first compound 1 µM): 30.9%
viability, T/C (second compound 0.316 µM, first compound 0.00316 µM): 112%
viability, T/C (second compound 0.316 µM, first compound 0.01 µM): 106%
viability, T/C (second compound 0.316 µM, first compound 0.0316 µM): 97.9%
viability, T/C (second compound 0.316 µM, first compound 0.1 µM): 95.8%
viability, T/C (second compound 0.316 µM, first compound 0.316 µM): 78.6%
viability, T/C (second compound 0.316 µM, first compound 1 µM): 26%
viability, T/C (second compound 1 µM, first compound 0.00316 µM): 105%
viability, T/C (second compound 1 µM, first compound 0.01 µM): 105%
viability, T/C (second compound 1 µM, first compound 0.0316 µM): 92.6%
viability, T/C (second compound 1 µM, first compound 0.1 µM): 95%
viability, T/C (second compound 1 µM, first compound 0.316 µM): 66.3%
viability, T/C (second compound 1 µM, first compound 1 µM): 16.6%
viability, T/C (second compound 3.16 µM, first compound 0.00316 µM): 93.7%
viability, T/C (second compound 3.16 µM, first compound 0.01 µM): 94.3%
viability, T/C (second compound 3.16 µM, first compound 0.0316 µM): 94.6%
viability, T/C (second compound 3.16 µM, first compound 0.1 µM): 89.7%
viability, T/C (second compound 3.16 µM, first compound 0.316 µM): 51.5%
viability, T/C (second compound 3.16 µM, first compound 1 µM): 11.5%
viability, T/C (second compound 10 µM, first compound 0.00316 µM): 91.9%
viability, T/C (second compound 10 µM, first compound 0.01 µM): 85.3%
viability, T/C (second compound 10 µM, first compound 0.0316 µM): 90.1%
viability, T/C (second compound 10 µM, first compound 0.1 µM): 79.3%
viability, T/C (second compound 10 µM, first compound 0.316 µM): 28%
viability, T/C (second compound 10 µM, first compound 1 µM): 10.6%

C=CC(=O)N1CCN(c2nc(OCC3CCCN3C)nc3c(F)c(-c4nc(N)cc(C)c4C(F)(F)F)c(Cl)cc23)C(C)C1 (centres undefined) + CCn1c(-c2cccnc2C(C)OC)c2c3cc(ccc31)N1CCOC(CC(NC(=O)C(C(C)C)N(C)C(=O)C3(F)CCN(C(=O)C#CC(C)(C)N(C)C)CC3)C(=O)N3CCCC(N3)C(=O)OCC(C)(C)C2)C1
pIC50 (second compound 0.000949 µM): 6.75
pIC50 (second compound 0.003 µM): 6.95
pIC50 (second compound 0.00949 µM): 8.45
pIC50 (second compound 0.03 µM): > 8.50
pIC50 (second compound 0.0949 µM): > 8.50
pIC50 (second compound 0.3 µM): > 8.50
viability, T/C (second compound 0.000949 µM, first compound 0.00316 µM): 81.6%
viability, T/C (second compound 0.000949 µM, first compound 0.01 µM): 69.9%
viability, T/C (second compound 0.000949 µM, first compound 0.0316 µM): 63.1%
viability, T/C (second compound 0.000949 µM, first compound 0.1 µM): 55.4%
viability, T/C (second compound 0.000949 µM, first compound 0.316 µM): 46.6%
viability, T/C (second compound 0.000949 µM, first compound 1 µM): 36%
viability, T/C (second compound 0.003 µM, first compound 0.00316 µM): 69.4%
viability, T/C (second compound 0.003 µM, first compound 0.01 µM): 54%
viability, T/C (second compound 0.003 µM, first compound 0.0316 µM): 52.8%
viability, T/C (second compound 0.003 µM, first compound 0.1 µM): 56.2%
viability, T/C (second compound 0.003 µM, first compound 0.316 µM): 45.9%
viability, T/C (second compound 0.003 µM, first compound 1 µM): 35.2%
viability, T/C (second compound 0.00949 µM, first compound 0.00316 µM): 52.8%
viability, T/C (second compound 0.00949 µM, first compound 0.01 µM): 46.8%
viability, T/C (second compound 0.00949 µM, first compound 0.0316 µM): 43.8%
viability, T/C (second compound 0.00949 µM, first compound 0.1 µM): 44.9%
viability, T/C (second compound 0.00949 µM, first compound 0.316 µM): 39.9%
viability, T/C (second compound 0.00949 µM, first compound 1 µM): 41.9%
viability, T/C (second compound 0.03 µM, first compound 0.00316 µM): 39.4%
viability, T/C (second compound 0.03 µM, first compound 0.01 µM): 37.1%
viability, T/C (second compound 0.03 µM, first compound 0.0316 µM): 40.4%
viability, T/C (second compound 0.03 µM, first compound 0.1 µM): 40.7%
viability, T/C (second compound 0.03 µM, first compound 0.316 µM): 43.2%
viability, T/C (second compound 0.03 µM, first compound 1 µM): 39.9%
viability, T/C (second compound 0.0949 µM, first compound 0.00316 µM): 36.6%
viability, T/C (second compound 0.0949 µM, first compound 0.01 µM): 34.3%
viability, T/C (second compound 0.0949 µM, first compound 0.0316 µM): 42.1%
viability, T/C (second compound 0.0949 µM, first compound 0.1 µM): 37.2%
viability, T/C (second compound 0.0949 µM, first compound 0.316 µM): 43.5%
viability, T/C (second compound 0.0949 µM, first compound 1 µM): 33.7%
viability, T/C (second compound 0.3 µM, first compound 0.00316 µM): 29.8%
viability, T/C (second compound 0.3 µM, first compound 0.01 µM): 35.3%
viability, T/C (second compound 0.3 µM, first compound 0.0316 µM): 42.9%
viability, T/C (second compound 0.3 µM, first compound 0.1 µM): 29%
viability, T/C (second compound 0.3 µM, first compound 0.316 µM): 36.1%
viability, T/C (second compound 0.3 µM, first compound 1 µM): 38%
